The results in this text go back to US11655239B2 (SHANGHAI INSTITUTE OF MATERIAL MEDICA, CHINESE ACADEMY OF …, priority 2019, dated 2023).

For orientation: IC50 means the concentration at which inhibition is half-maximal. Lower therefore signals greater potency in that assay.

In one data set the test system is ERK1/2, Akt and p38. Description: Phosphorylation level of downstream mediators of TGF-β (Western Blot). Format: cell-based, human. Conditions: MRC-5, TGF-β1 treatment. Here is the method:
1) Preparation of cell protein samples: the cell culture liquid was discarded, wash was performed once with PBS, and samples were collected by adding 1×SDS-Loading. after the samples were collected, they were placed in a metal bath at 100° C., and the samples were boiled for 10 minutes, and then the samples were stored at 4° C. for waiting for subsequent test.
2) Gel preparation and sample loading: according to the molecular weight of the detected protein, different concentrations of separation gel were selected. after filling the 1× electrophoresis buffer, an equal volume of protein sample 4 μl and protein marker were added on the far left to right in sequence. […]
8) Secondary antibodies: the film with the primary antibodies was rewarmed and incubated for about half an hour, and then the primary antibodies were recovered and the film was washed quickly with TBST solution 3 times, 10 minutes each time. […] The dilution ratio of the secondary antibody dedicated for DDR2 was 1:5000; The dilution ratio for the rest of the secondary antibodies were 1:8000, ready for use. […]
In addition, the phosphorylation level of the main downstream mediators of TGF-β was analyzed by Western Blot. […]

The target in another data set is PDGFR-β (Homo sapiens (Human), UniProt P09619). Description: Enzyme selectivity test (ELISA), PDGFR-β. Format: biochemical. The protocol: (§1) 1) Enzyme reaction substrate Poly(Glu, Tyr) 4:1 was diluted to 20 μg/mL with potassium-free PBS (10 mM sodium phosphate buffer, 150 mM NaCl, pH 7.2-7.4), and the microtiter plate was coated with 125 μL/well and placed at 37° C. for 12-16 hours of reaction. The liquid in the well was discard. The plate was washed three times with T-PBS (potassium-free PBS containing 0.1% Tween-20, 200 μL/well), 5 minutes each time. The ELISA plate was dried in an oven at 37° C. for 1 to 2 hours.
Sequence of PDGFR-β (P09619 33-1106, species assumed): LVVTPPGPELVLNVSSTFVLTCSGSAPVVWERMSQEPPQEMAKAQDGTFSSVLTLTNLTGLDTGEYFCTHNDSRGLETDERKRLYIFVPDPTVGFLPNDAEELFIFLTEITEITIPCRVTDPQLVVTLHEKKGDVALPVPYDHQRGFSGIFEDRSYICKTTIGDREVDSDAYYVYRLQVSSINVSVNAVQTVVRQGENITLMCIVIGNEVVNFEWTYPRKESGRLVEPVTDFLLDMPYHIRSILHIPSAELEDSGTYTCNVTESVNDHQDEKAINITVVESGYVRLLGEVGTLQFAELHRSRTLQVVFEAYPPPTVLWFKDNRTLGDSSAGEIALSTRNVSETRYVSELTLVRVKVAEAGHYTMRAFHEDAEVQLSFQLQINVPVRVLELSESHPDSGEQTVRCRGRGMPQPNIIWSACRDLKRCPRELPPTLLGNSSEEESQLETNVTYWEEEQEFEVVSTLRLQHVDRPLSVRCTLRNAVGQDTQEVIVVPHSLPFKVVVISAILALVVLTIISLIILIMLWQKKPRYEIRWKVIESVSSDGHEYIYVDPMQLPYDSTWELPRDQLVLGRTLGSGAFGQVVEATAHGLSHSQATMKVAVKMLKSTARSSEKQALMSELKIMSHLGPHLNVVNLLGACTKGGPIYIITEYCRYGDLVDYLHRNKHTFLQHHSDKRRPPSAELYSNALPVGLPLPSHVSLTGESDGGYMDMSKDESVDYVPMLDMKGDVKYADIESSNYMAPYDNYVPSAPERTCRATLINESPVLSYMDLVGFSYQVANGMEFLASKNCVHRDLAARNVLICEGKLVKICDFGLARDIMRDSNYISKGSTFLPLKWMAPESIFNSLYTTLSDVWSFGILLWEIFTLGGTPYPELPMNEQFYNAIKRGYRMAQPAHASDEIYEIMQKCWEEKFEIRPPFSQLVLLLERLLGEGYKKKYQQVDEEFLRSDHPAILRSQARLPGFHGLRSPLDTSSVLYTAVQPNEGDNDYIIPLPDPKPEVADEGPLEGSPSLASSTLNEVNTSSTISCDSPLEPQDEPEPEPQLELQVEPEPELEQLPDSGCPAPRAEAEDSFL
(§2) 2) Reaction buffer (50 mM HEPES pH 7.4, 50 mM MgCl2, 0.5 mM MnCl2, 0.2 mM Na3VO4, 1 mM DTT) diluted ATP solution (49 μL) was added to each well, 1 μL of the compound to be tested was added to each well, and then 50 μL of DDR2 kinase domain recombinant protein diluted in the reaction buffer was added to start the reaction. Two control wells without ATP were set in each experiment. The plate placed on a shaker (100 rpm) at 37° C. for 1 hour of reaction. The liquid in the well was discarded and the plate was washed three times with T-PBS.
(§3) 3) Antibody PY99 dilution solution (the antibody was diluted 1:500 with T-PBS containing BSA 5 mg/mL) was added at 100 μL/well, and shaken on a shaker at 37° C. for 0.5 hour of reaction. The liquid in the well was discarded and the plate was washed three times with T-PBS.
(§4) 4) Horseradish peroxidase labeled goat anti-murine secondary antibody dilution solution (the antibody is diluted 1:2000 with T-PBS containing BSA 5 mg/ml) was added at 100 μL/well, and shaken on a shaker at 37° C. for 0.5 hour of reaction. The liquid in the well was discarded and the plate was washed three times with T-PBS.
(§5) 5) 2 mg/ml of OPD color developing solution [diluted with 0.1 M citric acid-sodium citrate buffer (pH=5.4) containing 0.03% H2O2] was added at 100 μL/well and reacted for 1 to 10 minutes at 25° C. in the dark.
(§6) 6) 2M H2SO4 was added at 50 μL/well to stop the reaction, and a tunable wavelength microplate reader VERSAmax was used for reading at a wavelength of 490 nm.
(§7) The IC50 value was obtained by four-parameter regression using the software that came with the microplate reader. […]
(ELISA stands for enzyme-linked immunosorbent assay.)

For the next data set, the target named is ErbB4 (Homo sapiens (Human), UniProt Q15303). Description: Enzyme selectivity test (ELISA), ErbB4. Format: biochemical. The protocol:
as §1, §2, §3, §4, §5, §6, §7

Another data set deals with KDR (Homo sapiens (Human), UniProt P35968). As to the kind of experiment: Enzyme selectivity test (ELISA), KDR. Format: biochemical. The protocol:
as §1, §2, §3, §4, §5, §6, §7

The test system of data set [1] is lung fibroblast cell line MRC-5. As to the kind of experiment: Cytotoxic activity test (MTS), MRC-5. Format: cell-based, human. The following applies: 10 μM. Here is the method: Experimental objective: The cytotoxic activity of compound S15 on bronchial epithelial cell line Beas-2B and lung fibroblast cell line MRC-5 was tested.
1) The human bronchial epithelial cell line Beas-2B and the human embryonic lung fibroblast cell line MRC-5 were collected, and inoculated at a certain density (about 5000-10000 cells) on a 96-well plate (the edge wells were filled with sterile water or PBS). A control was set on each plate (100 μL of culture medium was added);
2) The plate was incubated overnight at 37° C., 5% CO2. The plate was turned upside down and observed under the microscope.
3) The solutions of different concentrations of the compounds to be tested were added to each well, and a control well (culture medium and MTS solution with cells but no drug) and a blank well (without cells, medium and MTS solution) were set, 3 to 5 repetition wells were set for each group. Incubation was performed at 37° C. for 48-72 hours.
4) 10 μL/well of MTS/PMS (20:1, Promega Corp) solution was added to each well containing 100 μL of culture medium, and then the plate was gently shaken. The plate was incubated at 37° C. for 2 to 4 hours.
5) M5 microplate reader (Molecular Device, USA) was used to measure the absorbance of the solution at 490 nm. […]

SMILES strings stand for the structures.

Sequence of KDR (P35968 20-1356, species assumed): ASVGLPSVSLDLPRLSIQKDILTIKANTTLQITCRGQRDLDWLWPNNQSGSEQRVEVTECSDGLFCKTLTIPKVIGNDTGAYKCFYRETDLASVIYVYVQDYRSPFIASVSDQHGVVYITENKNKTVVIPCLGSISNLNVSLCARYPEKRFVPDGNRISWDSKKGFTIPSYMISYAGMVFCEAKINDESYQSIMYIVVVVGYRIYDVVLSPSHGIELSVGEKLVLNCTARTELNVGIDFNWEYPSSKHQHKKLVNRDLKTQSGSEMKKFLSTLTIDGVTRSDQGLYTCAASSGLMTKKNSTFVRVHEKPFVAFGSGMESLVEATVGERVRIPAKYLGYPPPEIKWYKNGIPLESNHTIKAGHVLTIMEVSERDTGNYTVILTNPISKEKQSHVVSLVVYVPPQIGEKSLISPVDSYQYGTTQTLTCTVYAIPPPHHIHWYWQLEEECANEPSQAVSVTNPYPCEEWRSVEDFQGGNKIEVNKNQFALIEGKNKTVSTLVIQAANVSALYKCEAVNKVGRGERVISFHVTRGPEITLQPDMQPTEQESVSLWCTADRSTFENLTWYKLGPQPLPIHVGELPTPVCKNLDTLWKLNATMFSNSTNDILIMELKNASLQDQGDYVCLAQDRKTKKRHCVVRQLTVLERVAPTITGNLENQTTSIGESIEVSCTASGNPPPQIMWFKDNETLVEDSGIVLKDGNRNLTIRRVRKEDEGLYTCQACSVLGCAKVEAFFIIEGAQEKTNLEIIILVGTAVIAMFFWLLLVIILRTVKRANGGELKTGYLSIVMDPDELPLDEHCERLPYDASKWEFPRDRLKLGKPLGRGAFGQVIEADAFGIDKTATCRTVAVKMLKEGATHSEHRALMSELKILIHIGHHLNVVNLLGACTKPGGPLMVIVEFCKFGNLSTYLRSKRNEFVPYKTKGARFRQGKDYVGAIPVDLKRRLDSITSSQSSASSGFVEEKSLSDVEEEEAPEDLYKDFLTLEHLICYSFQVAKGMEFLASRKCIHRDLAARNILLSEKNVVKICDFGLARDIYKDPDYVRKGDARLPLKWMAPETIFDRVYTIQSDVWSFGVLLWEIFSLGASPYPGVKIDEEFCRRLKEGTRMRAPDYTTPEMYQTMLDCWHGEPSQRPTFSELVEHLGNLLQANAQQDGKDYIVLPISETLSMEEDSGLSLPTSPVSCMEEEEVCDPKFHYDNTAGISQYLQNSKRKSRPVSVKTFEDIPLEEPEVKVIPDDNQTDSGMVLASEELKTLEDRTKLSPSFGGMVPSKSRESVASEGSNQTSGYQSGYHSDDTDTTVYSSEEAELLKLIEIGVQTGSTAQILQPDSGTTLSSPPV
Sequence of ErbB4 (Q15303 26-1308, species assumed): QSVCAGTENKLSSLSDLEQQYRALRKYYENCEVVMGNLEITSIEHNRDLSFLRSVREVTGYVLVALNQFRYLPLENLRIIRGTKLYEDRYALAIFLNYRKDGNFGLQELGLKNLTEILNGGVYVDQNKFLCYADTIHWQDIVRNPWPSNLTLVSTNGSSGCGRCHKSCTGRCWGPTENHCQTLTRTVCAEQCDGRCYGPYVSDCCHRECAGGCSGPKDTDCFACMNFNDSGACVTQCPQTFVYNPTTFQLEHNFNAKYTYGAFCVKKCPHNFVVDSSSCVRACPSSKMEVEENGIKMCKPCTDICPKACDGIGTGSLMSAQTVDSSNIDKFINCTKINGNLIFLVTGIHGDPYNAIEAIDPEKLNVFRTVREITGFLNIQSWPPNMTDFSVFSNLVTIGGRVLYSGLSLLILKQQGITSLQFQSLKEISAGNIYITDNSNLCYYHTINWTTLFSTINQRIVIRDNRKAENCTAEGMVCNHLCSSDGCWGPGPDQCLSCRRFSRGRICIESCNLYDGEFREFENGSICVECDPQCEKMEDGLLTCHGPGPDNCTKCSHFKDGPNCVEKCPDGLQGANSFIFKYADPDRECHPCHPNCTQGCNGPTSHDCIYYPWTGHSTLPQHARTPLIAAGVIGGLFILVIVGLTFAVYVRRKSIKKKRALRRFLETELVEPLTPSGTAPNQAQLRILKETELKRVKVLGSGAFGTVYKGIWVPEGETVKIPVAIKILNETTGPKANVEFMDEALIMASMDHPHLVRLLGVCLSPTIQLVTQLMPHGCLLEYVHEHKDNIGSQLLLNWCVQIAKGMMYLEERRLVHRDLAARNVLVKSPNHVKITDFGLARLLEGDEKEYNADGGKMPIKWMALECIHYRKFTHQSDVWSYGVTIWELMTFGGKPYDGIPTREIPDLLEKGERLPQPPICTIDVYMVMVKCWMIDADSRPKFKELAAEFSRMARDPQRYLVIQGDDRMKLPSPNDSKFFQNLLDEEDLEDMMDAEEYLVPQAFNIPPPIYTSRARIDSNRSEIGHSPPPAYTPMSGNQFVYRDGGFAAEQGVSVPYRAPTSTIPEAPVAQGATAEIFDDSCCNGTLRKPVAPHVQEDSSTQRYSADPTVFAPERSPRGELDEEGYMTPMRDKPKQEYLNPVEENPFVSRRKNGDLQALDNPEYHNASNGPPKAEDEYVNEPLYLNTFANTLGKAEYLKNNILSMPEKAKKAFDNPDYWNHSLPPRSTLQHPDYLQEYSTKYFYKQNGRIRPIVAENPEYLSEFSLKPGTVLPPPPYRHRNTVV

For `O=C(Nc1cccc(C(F)(F)F)c1)c1ccc(C2CC2)c(-c2ccc3nc(Nc4cnn(C5CC5)c4)ncc3c2)c1` [Compound S15, 4-cyclopropyl-3-(2-((1-cyclopropyl-1H-pyrazol-4-yl)amino)quinazolin-6-yl)-N-(3-(trifluoromethyl)phenyl)benzamide], in the data set on ERK1/2, Akt and p38, the “phosphorylation level of downstream ERK1/2, Akt and p38” value was “significantly inhibit the phosphorylation level of downstream ERK1/2, Akt and p38”. The IC50 on PDGFR-β is greater than 1000 nM; on ErbB4, greater than 10 nM; against KDR, less than 10 nM. The “cytotoxic activity on MRC-5” value in data set [1] is on record as “almost no toxicity”.
